Measurements taken from US20230339891A1, “URACIL DERIVATIVES AS MER-AXL INHIBITORS” (BRISTOL-MYERS SQUIBB COMPANY, priority 2018, published 2023).
pIC50: −log10 of the molar value.

Tests used:
[1] = target: HIS-AXL 473-End (Homo sapiens (Human), UniProt P30530); experiment: AXL kinase homogeneous time resolved fluorescence (HTRF) binding assay; conditions: 1 nM kinase, fluorescein-labeled kinase tracer at Kd, 60 minutes at room temperature
Protocol: (§1) MERTK, AXL, TYRO3 Kinase Homogeneous Time Resolved Fluorescence (HTRF) Assay
(§2) Assays were performed in black, flat-bottom, 1536-well plates. The reactions were incubated at room temperature for 60 minutes, following which the HTRF signals, ratio of fluorescence intensities at emission wavelengths for fluorescein acceptor (520 nm) and terbium donor (495 nm), the 520/495 ratio, were measured on the Envision Plate reader. Inhibition data were calculated from the 520/495 ratio generated by the no protein control reactions for 100% inhibition and vehicle-only reactions for 0% inhibition, and dose response curves generated to determine the concentration required for inhibiting 50% of the HTRF signal (IC50). Compounds were dissolved at 10 mM in dimethylsulfoxide (DMSO) and evaluated at eleven concentrations.

[2] = target: GST-MERTK 578-872 (Homo sapiens (Human), UniProt Q12866); experiment: MERTK kinase homogeneous time resolved fluorescence (HTRF) binding assay; conditions: 1 nM kinase, fluorescein-labeled kinase tracer at Kd, 60 minutes at room temperature; read-out: Mer HTRF IC50
Protocol: as §1, §2

Chain of GST-MERTK 578-872 (Q12866 578-872): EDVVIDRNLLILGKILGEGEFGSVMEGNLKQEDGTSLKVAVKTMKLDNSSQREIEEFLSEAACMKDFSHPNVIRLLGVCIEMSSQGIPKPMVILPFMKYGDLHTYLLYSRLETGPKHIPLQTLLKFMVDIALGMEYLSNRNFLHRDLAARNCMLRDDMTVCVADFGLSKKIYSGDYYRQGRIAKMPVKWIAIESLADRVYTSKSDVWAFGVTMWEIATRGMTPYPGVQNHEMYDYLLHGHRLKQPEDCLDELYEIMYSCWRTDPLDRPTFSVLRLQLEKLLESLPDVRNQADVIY
Chain of HIS-AXL 473-End (P30530 473-894): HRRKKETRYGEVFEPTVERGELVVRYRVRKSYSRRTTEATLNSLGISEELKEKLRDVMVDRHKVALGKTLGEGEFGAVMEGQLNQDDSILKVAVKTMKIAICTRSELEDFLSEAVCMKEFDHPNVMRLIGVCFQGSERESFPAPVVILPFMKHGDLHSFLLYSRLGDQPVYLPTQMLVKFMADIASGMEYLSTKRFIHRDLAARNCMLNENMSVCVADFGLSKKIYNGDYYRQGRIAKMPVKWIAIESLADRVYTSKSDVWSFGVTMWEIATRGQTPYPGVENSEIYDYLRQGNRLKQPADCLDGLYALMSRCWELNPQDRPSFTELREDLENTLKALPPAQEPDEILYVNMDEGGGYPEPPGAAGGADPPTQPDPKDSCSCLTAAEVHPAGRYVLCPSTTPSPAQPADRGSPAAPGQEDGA

SMILES	pIC50 [1]	pIC50 [2]
Cc1ccc(-n2c(=O)c(C(=O)Nc3ccc(Oc4ccnc(Nc5ccc(S(=O)(=O)N(C)C)cn5)c4)c(F)c3)cn(C(C)C)c2=O)cc1 [Example 62, N-{4-[(2-{[5-(Dimethylsulfamoyl)pyridin-2-yl]amino}pyridin-4-yl)oxy]-3-fluorophenyl}-3-(4-methylphenyl)-2,4-dioxo-1-(propan-2-yl)-1,2,3,4-tetrahydropyrimidine-5-carboxamide]	8.34	7.64
Cc1cnc(Nc2cc(Oc3ccc(NC(=O)c4cn(C(C)C)c(=O)n(-c5ccc(F)cc5)c4=O)cc3F)ccn2)cn1 [Example 27]	8.17	7.72
Cc1cnc(Nc2cc(Oc3ccc(NC(=O)c4cn(C(C)C)c(=O)n(-c5ccc(F)cc5)c4=O)cc3F)ccn2)nc1N1CCN(S(C)(=O)=O)CC1 [Example 137, N-(3-fluoro-4-[(2-{[4-(4-methanesulfonylpiperazin-1-yl)-5-methylpyrimidin-2-yl]amino}pyridin-4-yl)oxy]phenyl)-3-(4-fluorophenyl)-2,4-dioxo-1-(propan-2-yl)-1,2,3,4-tetrahydropyrimidine-5-carboxamide]	8.47	8.44
CC(C)n1cc(C(=O)Nc2ccc(Oc3ccnc(Nc4ccc(N5CCCC5=O)cn4)c3)c(F)c2)c(=O)n(-c2ccc(F)cc2)c1=O [Example 88, N-{3-fluoro-4-[(2-{[5-(2-oxopyrrolidin-1-yl)pyridin-2-yl]amino}pyridin-4-yl)oxy]phenyl}-3-(4-fluorophenyl)-2,4-dioxo-1-(propan-2-yl)-1,2,3,4-tetrahydropyrimidine-5-carboxamide]	8.48	8.25
CC(C)n1cc(C(=O)Nc2ccc(Oc3ccnc(Nc4cnc(C#N)cn4)c3)c(F)c2)c(=O)n(-c2ccc(F)cc2)c1=O [Example 26]	7.74	7.22
CC(C)n1cc(C(=O)Nc2ccc(Oc3ccnc(Nc4ccc(C(=O)NCC(F)F)cn4)c3)c(F)c2)c(=O)n(-c2ccc(F)cc2)c1=O [Example 95]	9.10	8.37
CC(C)n1cc(C(=O)Nc2ccc(Oc3ccnc(Nc4ccc(S(C)(=O)=O)cn4)c3)c(F)c2)c(=O)n(-c2ccc(F)cn2)c1=O [Example 37, N-[3-Fluoro-4-({2-[(5-methanesulfonylpyridin-2-yl)amino]pyridin-4-yl}oxy)phenyl]-3-(5-fluoropyridin-2-yl)-2,4-dioxo-1-(propan-2-yl)-1,2,3,4-tetrahydropyrimidine-5-carboxamide]	8.59	7.85
CC(C)n1cc(C(=O)Nc2ccc(Oc3ccnc(Nc4ncc(Cl)cc4F)c3)c(F)c2)c(=O)n(-c2ccc(F)cc2)c1=O [Example 3]	5.76	7.23
Cc1cc(Nc2cc(Oc3ccc(NC(=O)c4cn(C(C)C)c(=O)n(-c5ccc(F)cc5)c4=O)cc3F)ccn2)ncc1S(=O)(=O)N(C)C [Example 86, N-{4-[(2-{[5-(dimethylsulfamoyl)-4-methylpyridin-2-yl]amino}pyridin-4-yl)oxy]-3-fluorophenyl}-3-(4-fluorophenyl)-2,4-dioxo-1-(propan-2-yl)-1,2,3,4-tetrahydropyrimidine-5-carboxamide]	8.00	7.51
CC(C)n1cc(C(=O)Nc2ccc(Oc3ccnc(Nc4ccc(S(=O)(=O)N(C)C)cn4)c3)c(F)c2)c(=O)n(-c2cccc(F)c2)c1=O [Example 68]	8.15	7.70
CC(C)n1cc(C(=O)Nc2ccc(Oc3ccnc(Nc4ccc(S(=O)(=O)N(C)C)cn4)c3)c(F)c2)c(=O)n(Cc2ccccc2)c1=O [Example 49]	6.96	5.48
CN(C)S(=O)(=O)c1ccc(Nc2cc(Oc3ccc(NC(=O)c4cn([C@H]5CCOC5)c(=O)n(-c5ccc(F)cc5)c4=O)cc3F)ccn2)nc1 [Example 47]	8.22	8.10
CC(C)n1cc(C(=O)Nc2ccc(Oc3ccnc(Nc4ccc(C#N)c(N5CC[C@H](O)C5)n4)c3)c(F)c2)c(=O)n(-c2ccc(F)cc2)c1=O [Example 118]	8.85	8.82
CC(C)n1cc(C(=O)Nc2ccc(Oc3ccnc(Nc4ccc(C(N)=O)cn4)c3)c(F)c2)c(=O)n(-c2ccc(F)cc2)c1=O [Example 16]	8.96	8.24
CC(C)n1cc(C(=O)Nc2ccc(Oc3ccnc(Nc4ccc(S(=O)(=O)N(C)C)cn4)c3)c(F)c2)c(=O)n(-c2cccc(C(F)(F)F)c2)c1=O [Example 72]	7.05	6.92
CC(C)n1cc(C(=O)Nc2ccc(Oc3ccnc(Nc4ccc(N5CCOCC5)cn4)c3)c(F)c2)c(=O)n(-c2ccc(F)cc2)c1=O [Example 21]	7.41	6.79
Cc1ccc(Nc2cc(Oc3ccc(NC(=O)c4cn(C(C)C)c(=O)n(-c5ccc(F)cc5)c4=O)cc3F)ccn2)nc1 [Example 4]	8.36	7.49
COC[C@H](C)n1cc(C(=O)Nc2ccc(Oc3ccnc(Nc4ccc(S(=O)(=O)N(C)C)cn4)c3)c(F)c2)c(=O)n(-c2ccc(F)cc2)c1=O [Example 45]	7.68	7.40

SMILES	pIC50 [1]	pIC50 [2]
CCOc1cnc(Nc2cc(Oc3ccc(NC(=O)c4cn(C(C)C)c(=O)n(-c5ccc(F)cc5)c4=O)cc3F)ccn2)cn1 [Example 29]	8.14	6.74
CC(C)n1cc(C(=O)Nc2ccc(Oc3ccnc(Nc4ccc(S(=O)(=O)N5CCN(C)CC5)cn4)c3)c(F)c2)c(=O)n(-c2ccc(F)cc2)c1=O [Example 85]	8.41	7.72
CC(C)n1cc(C(=O)Nc2ccc(Oc3ccnc(Nc4ccc(S(=O)(=O)N(C)C)cn4)c3)c(F)c2)c(=O)n(-c2ccc(Cl)cc2)c1=O [Example 66]	7.51	7.54
CC(C)n1cc(C(=O)Nc2ccc(Oc3ccnc(Nc4nc(N5CCN(S(C)(=O)=O)CC5)ccc4F)c3)c(F)c2)c(=O)n(-c2ccc(F)cc2)c1=O [Example 135, N-{3-fluoro-4-[(2-{[3-fluoro-6-(4-methanesulfonylpiperazin-1-yl)pyridin-2-yl]amino}pyridin-4-yl)oxy]phenyl}-3-(4-fluorophenyl)-2,4-dioxo-1-(propan-2-yl)-1,2,3,4-tetrahydropyrimidine-5-carboxamide]	8.96	9.00
CC(C)n1cc(C(=O)Nc2ccc(Oc3ccnc(Nc4ccc(N5CCC(NC(=O)OC(C)(C)C)C5=O)cn4)c3)c(F)c2)c(=O)n(-c2ccc(F)cc2)c1=O (stereo not drawn) [Example 89]	8.36	8.18
CC(C)n1cc(C(=O)Nc2ccc(Oc3ccnc(Nc4ccc(-c5nccs5)cn4)c3)c(F)c2)c(=O)n(-c2ccc(F)cc2)c1=O [Example 23]	7.51	7.26
CC(C)n1cc(C(=O)Nc2ccc(Oc3ccnc(Nc4ccc(C(=O)NCCN5CCOCC5)cn4)c3)c(F)c2)c(=O)n(-c2ccc(F)cc2)c1=O [Example 93]	9.40	8.80
CC(C)n1cc(C(=O)Nc2ccc(Oc3ccnc(Nc4ccnc(N5CCCC5)n4)c3)c(F)c2)c(=O)n(-c2ccc(F)cc2)c1=O [Example 103, N-{3-fluoro-4-[(2-{[2-(pyrrolidin-1-yl)pyrimidin-4-yl]amino}pyridin-4-yl)oxy]phenyl}-3-(4-fluorophenyl)-2,4-dioxo-1-(propan-2-yl)-1,2,3,4-tetrahydropyrimidine-5-carboxamide]	9.15	9.22
Cc1cnc(Nc2cc(Oc3ccc(NC(=O)c4cn(C(C)C)c(=O)n(-c5ccc(F)cc5)c4=O)cc3F)ccn2)cc1C [Example 6]	8.10	7.43
CC(C)n1cc(C(=O)Nc2ccc(Oc3ccnc(Nc4ccc(S(=O)(=O)N(C)C)cn4)c3)c(F)c2)c(=O)n(-c2ccc(C(F)(F)F)cc2)c1=O [Example 65]	7.00	6.90
COC(=O)Cc1csc(Nc2cc(Oc3ccc(NC(=O)c4cn(C(C)C)c(=O)n(-c5ccc(F)cc5)c4=O)cc3F)ccn2)n1 [Example 33]	7.72	7.17
CC(=O)c1ccc(-n2c(=O)c(C(=O)Nc3ccc(Oc4ccnc(Nc5ccc(S(=O)(=O)N(C)C)cn5)c4)c(F)c3)cn(C(C)C)c2=O)cc1 [Example 64]	6.74	6.09
CC(C)n1cc(C(=O)Nc2ccc(Oc3ccnc(Nc4ccc(S(=O)(=O)N(C)C)cn4)c3)c(F)c2)c(=O)n(C2CCCCC2)c1=O [Example 53]	6.59	6.31
CC(C)n1cc(C(=O)Nc2ccc(Oc3ccnc(Nc4ccc(C#N)c(N5CCN(S(C)(=O)=O)[C@H](C)C5)n4)c3)c(F)c2)c(=O)n(-c2ccc(F)cc2)c1=O [Example 125]	8.89	8.66
CC(C)n1cc(C(=O)Nc2ccc(Oc3ccnc(Nc4ncc(C(F)(F)F)cc4F)c3)c(F)c2)c(=O)n(-c2ccc(F)cc2)c1=O [Example 12]	7.26	6.64
CC(C)n1cc(C(=O)Nc2ccc(Oc3ccnc(Nc4ccc(C#N)c(N5CCC(O)CC5)n4)c3)c(F)c2)c(=O)n(-c2ccc(F)cc2)c1=O [Example 120]	8.96	8.80
CC(C)n1cc(C(=O)Nc2ccc(Oc3ccnc(Nc4ccc(C#N)c(N5CCC(S(C)(=O)=O)C5)n4)c3)c(F)c2)c(=O)n(-c2ccc(F)cc2)c1=O (stereo not drawn) [Example 124]	8.70	8.54
CC(C)n1cc(C(=O)Nc2ccc(Oc3ccnc(Nc4ccc(S(=O)(=O)N5CCCCC5)cn4)c3)c(F)c2)c(=O)n(-c2ccc(F)cc2)c1=O [Example 76, N-{3-Fluoro-4-[(2-{[5-(piperidine-1-sulfonyl)pyridin-2-yl]amino}pyridin-4-yl)oxy]phenyl}-3-(4-fluorophenyl)-2,4-dioxo-1-(propan-2-yl)-1,2,3,4-tetrahydropyrimidine-5-carboxamide]	7.74	7.42
